From PubChem BioAssay (NCI)
“And” between values parts separate entries of the source, which are not always exact repeats. Equal values may be shown once.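 Following 48 hours of exposure in 96-well plates, responses at five concentrations were used to interpolate endpoints linearly. GI50 = concentration required for 50% inhibition of growth. TGI is the concentration that stops growth completely.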 *1 amine or outer side, *2 acyl side, *3 side chain or, on linkers, in order; H or OH if unused. Where a SMILES comes first, the peptide text is derived from it. [ ]: non-standard residue; d: D form. X56 = CC[C@H](C)[C@H](OC(=O)[C@@H](C)[C@@H](CC)N[*:1])C(=O)[*:2]; X32 = C[C@H](N[*:1])C(=O)C(C)(C)C(=O)[*:2]; NMeY = CN[C@@H](Cc1ccc(O)cc1)C(=O)O; NMeL = CN[C@@H](CC(C)C)C(=O)O; NMeV = CN[C@H](C(=O)O)C(C)C

Assays:
Test in all cases: growth of human tumour cells (NCI), 48 h
SK-MEL-2 melanoma = system: SK-MEL-2 melanoma
SW-620 colon = system: SW-620 colon
SK-MEL-28 melanoma = system: SK-MEL-28 melanoma
MOLT-4 leukemia = system: MOLT-4 leukemia
786-0 renal = system: 786-0 renal
HCT-116 colon = system: HCT-116 colon
A549 NSCLC = system: A549 NSCLC
NCI-H522 lung = system: NCI-H522 lung
CAKI-1 renal = system: CAKI-1 renal
DU-145 prostate = system: DU-145 prostate

| SMILES | TGI (SK-MEL-2 melanoma) | TGI (SW-620 colon) | TGI (SK-MEL-28 melanoma) | TGI (MOLT-4 leukemia) | TGI (786-0 renal) | TGI (HCT-116 colon) | TGI (A549 NSCLC) | TGI (NCI-H522 lung) | TGI (CAKI-1 renal) | GI50 (SK-MEL-2 melanoma) | GI50 (SW-620 colon) | GI50 (SK-MEL-28 melanoma) | GI50 (786-0 renal) | GI50 (HCT-116 colon) | GI50 (A549 NSCLC) | GI50 (DU-145 prostate) | TGI (DU-145 prostate) | GI50 (CAKI-1 renal) | GI50 (NCI-H522 lung) | GI50 (MOLT-4 leukemia) |
| --- | --- | --- | --- | --- | --- | --- | --- | --- | --- | --- | --- | --- | --- | --- | --- | --- | --- | --- | --- | --- |
| N#C/C(=C\c1ccc(C(O)P(=O)(O)O)cc1)C(N)=O (stereo not given) | > 100 µM | > 100 µM | > 100 µM | > 100 µM | > 100 µM | > 100 µM | > 100 µM | > 100 µM |  |  |  |  |  |  |  |  |  |  |  |  |
| Cn1cnc([N+](=O)[O-])c1Sc1nnnn1-c1ccccc1 | 29.5 µM | 20.2 µM | 28.6 µM | 6.22 µM | 30.5 µM | 23.4 µM | 62.9 µM | 7.35 µM | 30.1 µM |  |  |  |  |  |  |  |  |  |  |  |
| S=c1nc(N2CCCCC2)ss1 | 37.7 µM | 72.4 µM | 36.4 µM | 33.3 µM | 48.1 µM | 42.4 µM | 83.7 µM |  | > 100 µM |  |  |  |  |  |  |  |  |  |  |  |
| O=c1c2cccnc2ncn1CCN1CCCC1 | > 100 µM | > 100 µM | > 100 µM | > 100 µM | > 100 µM | > 100 µM | > 100 µM | > 100 µM | > 100 µM |  |  |  |  |  |  |  |  |  |  |  |
| NNC(=O)/C(NC(=O)c1ccccc1)=C(\N)c1ccc(Cl)cc1 | > 100 µM | > 100 µM | > 100 µM | > 100 µM | > 100 µM | > 100 µM | > 100 µM | > 100 µM | > 100 µM |  |  |  |  |  |  |  |  |  |  |  |
| CC1(O)CCC2(C#N)CCC1C2O (stereo not given) | > 100 µM |  | > 100 µM | > 100 µM | > 100 µM | > 100 µM | > 100 µM | > 100 µM | > 100 µM |  |  |  |  |  |  |  |  |  |  |  |
| Cc1c2c(cc3c(=O)ccn(CCN(C)C)c13)c(=O)ccn2CCN(C)C | 44.4 µM | 20.5 µM | 35.5 µM | 13.6 µM | 17.5 µM | 19.5 µM | 48.9 µM | 21.1 µM | 67.8 µM |  |  |  |  |  |  |  |  |  |  |  |
| OCC(O)C(O)C(O)/C=N/Nc1nc2ccccc2nc1-c1ccccc1 (stereo not given) | > 100 µM | > 100 µM | > 100 µM |  | > 100 µM | > 100 µM | > 100 µM | > 100 µM | > 100 µM | > 100 µM | > 100 µM | > 100 µM | > 100 µM | > 100 µM | > 100 µM | > 100 µM | > 100 µM | 87.9 µM | 72.7 µM |  |
| COc1cc2c(c(OC)c1OC)-c1ccc(OC)c(=O)cc1[C@@H](N(C)C=O)CC2 | 0.0487 µM | > 100 µM | > 100 µM | > 100 µM | > 100 µM | 6.83 µM | > 100 µM | 0.0438 µM | > 100 µM |  |  |  |  |  |  |  |  |  |  |  |
| Cc1nc(C(N)=S)sc1C(=O)C/C(=N/N)C(=O)Nc1ccc(Cl)cc1 | > 100 µM | > 100 µM | > 100 µM | > 100 µM | > 100 µM | > 100 µM | > 100 µM | > 100 µM | > 100 µM |  |  |  |  |  |  |  |  |  |  |  |
| CC[C@H](C)[C@@H]1OC(=O)[C@@H](C)[C@@H](CC)NC(=O)[C@H](C)NC(=O)C(C)(C)C(=O)[C@H](C)NC(=O)[C@H](Cc2ccc(OC)cc2)N(C)C(=O)[C@H](C(C)C)N(C)C(=O)CNC(=O)[C@H](CC(C)C)N(C)C(=O)CNC1=O (cyclo(A[X56]G[NMeL]G[NMeV][NMeY](Me)[X32])) | 0.438 µM and 2.68 µM | > 39.1 µM | 0.165 µM | 0.784 µM | 0.48 µM and 0.233 µM | 11.3 µM | 3.19 µM and 6.15 µM |  | 0.122 µM and 0.0888 µM |  | < 0.0316 µM | 0.0727 µM and < 0.0164 µM | 0.0675 µM |  |  |  | 7.04 µM | 0.0259 µM |  | 0.0807 µM |
| CCOC(=O)/C(=C\c1ccc[nH]1)C(=O)c1ccccc1 | > 100 µM | > 100 µM | > 100 µM | > 100 µM | > 100 µM | > 100 µM | > 100 µM | > 100 µM | > 100 µM |  |  |  |  |  |  |  |  |  |  |  |
| CCC(C(=O)c1ccccc1)C(CCCC(=O)Nc1c(C)cccc1C)N=O (stereo not given) | > 100 µM | > 100 µM | > 100 µM | > 100 µM | > 100 µM | > 100 µM | > 100 µM | > 100 µM | > 100 µM |  |  |  |  |  |  |  |  |  |  |  |
| C1COCCOCCOCCOCCO1.CC(=O)[CH-]C(C)=O.CC(=O)[CH-]C(C)=O.CC(=O)[CH-]C(C)=O.[V] | 26 µM | > 100 µM | 23.9 µM | 41.4 µM | 12.9 µM | 27.3 µM | > 100 µM | 39 µM | 33.2 µM | 10.8 µM | 22.9 µM |  | 2.96 µM | 13.4 µM | 22.7 µM |  |  | 15 µM | 16.9 µM | 20.6 µM |
| CC(C)C(=O)/C=C/c1ccc(Cl)c(Cl)c1 | 31.9 µM | 36.3 µM | 35.3 µM | > 100 µM | 27.6 µM | 15.2 µM | 49.2 µM | 35.1 µM |  |  |  |  |  |  |  |  |  |  |  |  |
| N#CC1CC2(C(=O)C1=O)c1ccccc1-c1ccccc12 (stereo not given) | > 100 µM | > 100 µM | > 100 µM | > 100 µM | > 100 µM | > 100 µM | > 100 µM | > 100 µM | > 100 µM |  |  |  |  |  |  |  |  |  |  |  |
| Cc1cc2cn3c4cccnc4[nH]c(=O)c3c2cc1C |  | 2.47 µM | 2.95 µM | 4.53 µM | 3.33 µM | 2.76 µM |  |  | 2.92 µM |  | 1.09 µM | 1.53 µM | 1.87 µM | 1.45 µM |  | 1.83 µM | 3.28 µM | 1.42 µM |  | 2.25 µM |
| COc1ccc2c(c1)C1(C(=O)N2)C(C#N)=C(c2ccccc2)Nc2c1c(-c1ccccc1)nn2-c1ccccc1 (stereo not given) | 21.8 µM | 4.23 µM | 5.4 µM | 11 µM | 4.94 µM | 3.02 µM | 5.55 µM | 18.3 µM |  | 6.47 µM | 1.98 µM | 2.21 µM | 2.03 µM | 1.66 µM | 2.49 µM | 2.71 µM | 6.82 µM |  | 3.75 µM | 3.37 µM |
| CC/C=C/c1cc2cc[nH]c2c2c1C(C)C[C@@H]2C (stereo not given in full) |  | 94.8 µM | 84.4 µM | 53.3 µM | 36.4 µM | 29.7 µM | > 100 µM | 40.4 µM | > 100 µM |  |  |  |  |  |  |  |  |  |  |  |
| C=C1C(=O)O[C@H]2[C@H]1CC/C(COC(=O)c1ccccc1)=C\CC[C@@]1(C)O[C@@H]21 | 4.02 µM | 1.75 µM | 3.71 µM | 7.57 µM | 3.08 µM | 1.82 µM | 13 µM | 2.79 µM |  | 1.94 µM | 0.407 µM | 1.74 µM | 1.46 µM | 0.469 µM | 3.33 µM | 1.06 µM | 2.29 µM |  | 1.06 µM | 2.14 µM |
